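Protocol summary: plate cells (96-well), add compound at 5 concentrations, incubate 48 h, interpolate endpoints linearly. GI50 = concentration required for 50% inhibition of growth.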 The source made the active and inactive calls. Rule as the data show it: active = GI50 up to about 1.1 µM and inactive = higher.
Tests used:
Experiment in all cases: inhibition of tumour cell growth, NCI panel, 48 h
M14 = test system: M14
COLO 205 = test system: COLO 205
A498 = test system: A498
SNB-19 = test system: SNB-19
UACC-257 = test system: UACC-257
RXF 393 = test system: RXF 393
HT-29 = test system: HT-29
NCI-H226 = test system: NCI-H226
786-0 = test system: 786-0
OVCAR-4 = test system: OVCAR-4
UACC-62 = test system: UACC-62
IGROV-1 = test system: IGROV-1
A549 = test system: A549
TK-10 = test system: TK-10
XF498 = test system: XF498

Measured: GI50

N=c1oc2cc(O)c(O)cc2cc1C(N)=O
inactive: M14 > 100 µM | COLO 205 > 100 µM | A498 > 100 µM | SNB-19 > 100 µM | UACC-257 > 100 µM | RXF 393 > 100 µM | HT-29 > 100 µM | NCI-H226 > 100 µM | 786-0 43.5 µM | OVCAR-4 > 100 µM | UACC-62 > 100 µM | IGROV-1 > 100 µM | A549 > 100 µM | TK-10 > 100 µM | XF498 > 100 µM

CCCn1cc2c(SC)nc(SC)nc2n1
inactive: M14 > 100 µM | COLO 205 > 100 µM | A498 > 100 µM | SNB-19 > 100 µM | UACC-257 > 100 µM | RXF 393 > 100 µM | HT-29 > 100 µM | NCI-H226 32.2 µM | OVCAR-4 > 100 µM | IGROV-1 > 100 µM | A549 > 100 µM | TK-10 > 100 µM | XF498 > 100 µM

COc1ccc(C)cc1C1CCC(=O)O1 (stereo not given)
inactive: M14 > 100 µM | COLO 205 > 100 µM | A498 > 100 µM | SNB-19 > 100 µM | UACC-257 > 100 µM | RXF 393 > 100 µM | HT-29 > 100 µM | NCI-H226 > 100 µM | 786-0 > 100 µM | UACC-62 > 100 µM | IGROV-1 > 100 µM | A549 > 100 µM | TK-10 > 100 µM | XF498 63.8 µM

C/C(=C\c1ccccc1)C(O)C(=O)c1nc2ccc(Cl)cc2nc1O (stereo not given)
inactive: M14 > 100 µM | COLO 205 > 100 µM | A498 > 100 µM | SNB-19 > 100 µM | UACC-257 > 100 µM | HT-29 > 100 µM | NCI-H226 > 100 µM | 786-0 > 100 µM | OVCAR-4 26 µM | UACC-62 > 100 µM | IGROV-1 > 100 µM | A549 > 100 µM | TK-10 > 100 µM | XF498 92 µM

COc1cccc(-c2nccc3c(OCc4ccccc4)c(OC)c(OC)cc23)c1
inactive: M14 > 100 µM | COLO 205 > 100 µM | A498 > 100 µM | SNB-19 > 100 µM | UACC-257 > 100 µM | RXF 393 4.51 µM | HT-29 12 µM | NCI-H226 > 100 µM | 786-0 > 10 µM | UACC-62 > 100 µM | IGROV-1 > 100 µM | A549 > 100 µM | TK-10 > 100 µM | XF498 > 100 µM
